On this data set, the source says:
Solubility may be determined by measuring the amount of light transmittance (a light transmittance value) through a simple mixture of the non-volatile silicone fluid and liquid activation enhancer at the same weight/weight concentrations as in a final antiperspirant composition.
Solubility of a liquid activation enhancer in a non-volatile silicone may be determined by measuring the amount of light transmittance (light transmittance value) through a simple mixture of the non-volatile silicone fluid and liquid activation enhancer at the same weight/weight concentrations as in a final antiperspirant composition.
The Spectronic Genesys 10 V is utilizes a tungsten-halogen light source and has a spectral bandwidth of 5 nm, a wavelength range of 325 to 1100 nm, accuracy of ±1 nm and a repeatability of ±0.5 nm. Readouts include absorbance, transmittance and concentration. The spectrophotometer is set to 640 nm wavelength and the percent transmittance mode/readout. Polystyrene spectrometer cuvettes having a 1 cm optical light path and transmittance between ˜340 nm and ˜900 nm are used. One suitable example of a spectrometer cuvette is available from VWR International LLC under Catalog #97000-584 having a 2.5 to 4.5 ml capacity. The spectrophotometer is calibrated according to the manufacturer's instructions using a reference cuvette and composition comprised of just the non-volatile silicone fluid of interest. For example, if the test composition comprises 50 centistoke dimethicone and 15% w/w of isopropyl myristate, then the spectrometer is calibrated using a cuvette containing just 50 centistoke dimethicone. Sample cuvettes are filled sufficiently with a test composition of a non-volatile silicone fluid and liquid activation enhancer so that the light path of the spectrophotometer passes through the test composition in the cuvette. The sample cuvettes are shaken well just prior to taking a light transmittance reading.
As for `CCCCCCCCCCCCCCCCCC(=O)OCCCC` [butyl stearate], the light transmittance value result was “about 100%”.
In the case of `CCCCCCCCCCCCCC(C)C` [isohexadecane], the light transmittance value result is recorded as “about 100%” and the “solubility in 50 centistoke dimethicone (in words)” value (“solubility” below) is on record as “soluble”.
As to PPG-14 butyl ether, the “solubility” value is “insoluble”.
Take `CCCCCCCCCCCCCC(=O)OC(C)C` [isopropyl myristate]: the light transmittance value entry is listed as “about 101%”.
With mineral oil, the “solubility” value was “soluble in 50 centistoke dimethicone at some (lower) concentrations”.
Still for that read-out and setting: with `CCCCCCCCCCC(CO)CCCCCCCC` (centres unmarked) [octyldodecanol] the entry was “soluble in the 50 centistoke dimethicone at some (lower) concentrations”.
For the molecule `CCCCCCCCCCCCCCCC(=O)OC(C)C` [isopropyl palmitate], the light transmittance value entry is reported as “about 101%”.

Values taken from patent publication US20150020915A1, “Antiperspirant Spray Devices and Compositions” (The Procter & Gamble Company, priority 2013, published 2015).
